According to paper PMC10176470, “Engaging a Non-catalytic Cysteine Residue Drives Potent and Selective Inhibition of Caspase-6” (Journal of the American Chemical Society, 2023):

Legend:
Assay in all cases: SILAC proteomics / in-gel fluorescence, competition of probe 13-t labeling by 3a
[1] = target: proteins of HEK293T cells transiently overexpressing caspase-6 (Homo sapiens, UniProt P06744)
[2] = target: proteins of HEK293T cells transiently overexpressing caspase-6 (Homo sapiens, UniProt P09211)
Sequence of proteins of HEK293T cells transiently overexpressing caspase-6 (Homo sapiens, UniProt P09211) (P09211 whole entry): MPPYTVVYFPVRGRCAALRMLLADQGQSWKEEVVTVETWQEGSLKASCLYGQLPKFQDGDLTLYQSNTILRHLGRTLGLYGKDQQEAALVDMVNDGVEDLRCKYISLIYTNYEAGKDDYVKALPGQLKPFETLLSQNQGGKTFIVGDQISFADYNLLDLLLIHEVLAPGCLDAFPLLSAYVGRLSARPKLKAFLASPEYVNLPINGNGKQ

[3] = target: proteins of HEK293T cells transiently overexpressing caspase-6 (Homo sapiens, UniProt P09874); conditions: Comp; protein PARP1 P09874
Sequence of proteins of HEK293T cells transiently overexpressing caspase-6 (Homo sapiens, UniProt P09874) (P09874 whole entry): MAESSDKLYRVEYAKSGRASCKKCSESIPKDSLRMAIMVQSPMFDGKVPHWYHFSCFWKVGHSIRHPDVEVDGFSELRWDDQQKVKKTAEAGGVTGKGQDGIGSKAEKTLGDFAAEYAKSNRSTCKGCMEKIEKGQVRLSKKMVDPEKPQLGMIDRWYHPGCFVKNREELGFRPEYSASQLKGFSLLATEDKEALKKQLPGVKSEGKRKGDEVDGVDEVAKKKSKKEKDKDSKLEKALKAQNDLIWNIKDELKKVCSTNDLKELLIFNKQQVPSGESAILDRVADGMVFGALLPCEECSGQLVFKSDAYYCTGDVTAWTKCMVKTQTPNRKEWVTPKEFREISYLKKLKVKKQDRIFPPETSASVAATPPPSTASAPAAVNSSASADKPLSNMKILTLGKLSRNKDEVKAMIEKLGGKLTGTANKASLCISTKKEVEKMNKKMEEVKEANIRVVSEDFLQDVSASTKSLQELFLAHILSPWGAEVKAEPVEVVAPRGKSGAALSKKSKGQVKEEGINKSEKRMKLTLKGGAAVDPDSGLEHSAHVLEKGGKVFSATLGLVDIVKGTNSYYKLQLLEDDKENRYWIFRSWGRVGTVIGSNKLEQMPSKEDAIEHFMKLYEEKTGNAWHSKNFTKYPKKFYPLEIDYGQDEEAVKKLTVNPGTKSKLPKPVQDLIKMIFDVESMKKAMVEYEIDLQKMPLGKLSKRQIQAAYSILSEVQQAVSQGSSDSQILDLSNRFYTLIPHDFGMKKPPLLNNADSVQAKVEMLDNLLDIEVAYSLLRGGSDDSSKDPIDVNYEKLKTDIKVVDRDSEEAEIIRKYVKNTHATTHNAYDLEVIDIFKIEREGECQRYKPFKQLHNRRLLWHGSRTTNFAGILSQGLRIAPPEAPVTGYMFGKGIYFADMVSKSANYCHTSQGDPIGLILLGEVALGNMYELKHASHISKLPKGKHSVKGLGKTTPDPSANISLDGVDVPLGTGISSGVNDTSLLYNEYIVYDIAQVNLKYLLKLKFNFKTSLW

[4] = target: proteins of HEK293T cells transiently overexpressing caspase-6 (Homo sapiens, UniProt P11388); conditions: Comp; protein TOP2A P11388
[5] = target: T1, proteins of HEK293T cells transiently overexpressing caspase-6 (Homo sapiens, UniProt P25789)
T1 sequence (P25789 1-261): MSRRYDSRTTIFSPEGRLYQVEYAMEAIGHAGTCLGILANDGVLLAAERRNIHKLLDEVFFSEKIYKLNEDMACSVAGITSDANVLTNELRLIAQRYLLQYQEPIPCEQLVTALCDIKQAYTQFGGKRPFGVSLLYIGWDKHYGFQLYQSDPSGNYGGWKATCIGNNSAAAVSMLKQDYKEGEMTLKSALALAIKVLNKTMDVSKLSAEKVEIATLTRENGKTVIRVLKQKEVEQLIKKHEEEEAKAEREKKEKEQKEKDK

[6] = target: proteins of HEK293T cells transiently overexpressing caspase-6 (Homo sapiens, UniProt P27348); conditions: Comp; protein YWHAQ P27348
Sequence of proteins of HEK293T cells transiently overexpressing caspase-6 (Homo sapiens, UniProt P27348) (P27348 whole entry): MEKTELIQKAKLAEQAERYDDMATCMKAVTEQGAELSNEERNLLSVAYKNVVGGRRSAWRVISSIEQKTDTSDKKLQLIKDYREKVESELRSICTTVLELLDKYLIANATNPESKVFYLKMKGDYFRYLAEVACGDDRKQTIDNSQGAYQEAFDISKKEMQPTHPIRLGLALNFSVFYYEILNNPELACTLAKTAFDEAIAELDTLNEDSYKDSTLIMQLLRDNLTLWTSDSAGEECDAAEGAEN

[7] = target: proteins of HEK293T cells transiently overexpressing caspase-6 (Homo sapiens, UniProt P46060); conditions: Comp; protein RANGAP1 P46060
Sequence of proteins of HEK293T cells transiently overexpressing caspase-6 (Homo sapiens, UniProt P46060) (P46060 whole entry): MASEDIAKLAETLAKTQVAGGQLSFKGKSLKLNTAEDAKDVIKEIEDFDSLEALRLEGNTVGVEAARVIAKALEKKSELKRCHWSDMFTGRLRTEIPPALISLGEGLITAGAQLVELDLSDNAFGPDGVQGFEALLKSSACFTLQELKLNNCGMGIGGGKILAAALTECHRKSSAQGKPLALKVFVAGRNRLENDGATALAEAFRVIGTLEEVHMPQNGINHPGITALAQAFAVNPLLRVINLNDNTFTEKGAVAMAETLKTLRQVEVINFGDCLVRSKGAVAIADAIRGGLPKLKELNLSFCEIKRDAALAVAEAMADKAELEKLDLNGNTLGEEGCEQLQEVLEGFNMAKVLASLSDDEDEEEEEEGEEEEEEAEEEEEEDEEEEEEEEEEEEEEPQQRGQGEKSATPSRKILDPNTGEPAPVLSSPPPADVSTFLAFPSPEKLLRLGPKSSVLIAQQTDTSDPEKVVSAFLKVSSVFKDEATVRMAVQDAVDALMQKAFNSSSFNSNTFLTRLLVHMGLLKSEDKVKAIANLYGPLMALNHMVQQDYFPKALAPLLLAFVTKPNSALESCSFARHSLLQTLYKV

[8] = target: proteins of HEK293T cells transiently overexpressing caspase-6 (Homo sapiens, UniProt P46777); conditions: Comp; protein RPL5 P46777
[9] = target: proteins of HEK293T cells transiently overexpressing caspase-6 (Homo sapiens, UniProt P55884); conditions: Comp; protein EIF3B P55884
Sequence of proteins of HEK293T cells transiently overexpressing caspase-6 (Homo sapiens, UniProt P55884) (P55884 whole entry): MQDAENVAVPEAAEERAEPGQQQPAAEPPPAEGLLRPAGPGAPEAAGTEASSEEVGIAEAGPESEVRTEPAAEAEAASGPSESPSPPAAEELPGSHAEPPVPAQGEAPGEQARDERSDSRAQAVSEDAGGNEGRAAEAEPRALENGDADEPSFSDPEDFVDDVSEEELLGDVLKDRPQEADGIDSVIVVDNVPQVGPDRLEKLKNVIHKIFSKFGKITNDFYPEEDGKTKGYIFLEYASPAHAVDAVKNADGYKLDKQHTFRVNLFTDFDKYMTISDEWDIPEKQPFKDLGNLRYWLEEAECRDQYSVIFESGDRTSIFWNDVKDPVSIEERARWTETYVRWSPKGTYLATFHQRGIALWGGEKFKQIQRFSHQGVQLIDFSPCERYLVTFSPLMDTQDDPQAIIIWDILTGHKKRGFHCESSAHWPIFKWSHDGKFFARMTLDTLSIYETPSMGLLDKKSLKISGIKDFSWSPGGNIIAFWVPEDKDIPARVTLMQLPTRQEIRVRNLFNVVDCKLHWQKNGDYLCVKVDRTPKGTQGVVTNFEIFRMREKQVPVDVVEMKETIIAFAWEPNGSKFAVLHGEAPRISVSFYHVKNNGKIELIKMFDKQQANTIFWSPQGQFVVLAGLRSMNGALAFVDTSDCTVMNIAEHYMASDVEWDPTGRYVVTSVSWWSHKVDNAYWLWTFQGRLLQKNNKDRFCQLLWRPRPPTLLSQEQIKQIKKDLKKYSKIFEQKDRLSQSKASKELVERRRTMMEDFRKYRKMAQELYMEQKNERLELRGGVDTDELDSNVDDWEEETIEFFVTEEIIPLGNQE

[10] = target: proteins of HEK293T cells transiently overexpressing caspase-6 (Homo sapiens, UniProt P62424); conditions: Comp; protein RPL7A P62424
[11] = target: proteins of HEK293T cells transiently overexpressing caspase-6 (Homo sapiens, UniProt P62917); conditions: Comp; protein RPL8 P62917
[12] = target: proteins of HEK293T cells transiently overexpressing caspase-6 (Homo sapiens, UniProt Q04637); conditions: Comp; protein EIF4G1 Q04637
[13] = target: proteins of HEK293T cells transiently overexpressing caspase-6 (Homo sapiens, UniProt Q15233); conditions: Comp; protein NONO Q15233
[14] = target: proteins of HEK293T cells transiently overexpressing caspase-6 (Homo sapiens, UniProt Q15393); conditions: Comp; protein SF3B3 Q15393
[15] = target: proteins of HEK293T cells transiently overexpressing caspase-6 (Homo sapiens, UniProt Q7KZF4); conditions: Comp; protein SND1 Q7KZF4
[16] = target: proteins of HEK293T cells transiently overexpressing caspase-6 (Homo sapiens, UniProt Q99460)
Sequence of proteins of HEK293T cells transiently overexpressing caspase-6 (Homo sapiens, UniProt Q99460) (Q99460 whole entry): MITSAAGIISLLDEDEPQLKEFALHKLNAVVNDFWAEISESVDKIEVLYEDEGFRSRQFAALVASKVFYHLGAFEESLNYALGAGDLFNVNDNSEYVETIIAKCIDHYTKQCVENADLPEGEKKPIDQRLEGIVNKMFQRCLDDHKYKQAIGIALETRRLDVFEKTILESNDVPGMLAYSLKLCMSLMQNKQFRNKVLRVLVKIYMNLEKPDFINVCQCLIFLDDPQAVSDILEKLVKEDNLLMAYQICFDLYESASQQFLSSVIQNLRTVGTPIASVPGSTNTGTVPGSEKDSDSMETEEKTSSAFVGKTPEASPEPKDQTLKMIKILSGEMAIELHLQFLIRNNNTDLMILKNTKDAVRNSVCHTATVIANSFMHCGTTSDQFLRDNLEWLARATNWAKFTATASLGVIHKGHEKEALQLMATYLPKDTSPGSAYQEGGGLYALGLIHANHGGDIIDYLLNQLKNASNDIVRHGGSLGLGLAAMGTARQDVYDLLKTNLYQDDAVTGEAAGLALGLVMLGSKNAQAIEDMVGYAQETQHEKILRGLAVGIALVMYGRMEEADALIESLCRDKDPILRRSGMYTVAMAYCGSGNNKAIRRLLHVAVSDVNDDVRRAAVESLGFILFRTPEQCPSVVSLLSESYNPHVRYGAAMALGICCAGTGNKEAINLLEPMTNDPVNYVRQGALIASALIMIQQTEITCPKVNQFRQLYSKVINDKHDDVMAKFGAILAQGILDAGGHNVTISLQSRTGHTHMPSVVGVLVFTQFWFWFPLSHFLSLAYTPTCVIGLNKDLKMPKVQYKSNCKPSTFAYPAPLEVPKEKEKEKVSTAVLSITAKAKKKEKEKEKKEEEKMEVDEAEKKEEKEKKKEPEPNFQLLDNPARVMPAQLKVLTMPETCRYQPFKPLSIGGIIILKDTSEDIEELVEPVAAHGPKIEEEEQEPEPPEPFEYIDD

[17] = target: proteins of HEK293T cells transiently overexpressing caspase-6 (Homo sapiens, UniProt Q9Y230); conditions: Comp; protein RUVBL2 Q9Y230
Sequence of proteins of HEK293T cells transiently overexpressing caspase-6 (Homo sapiens, UniProt Q9Y230) (Q9Y230 whole entry): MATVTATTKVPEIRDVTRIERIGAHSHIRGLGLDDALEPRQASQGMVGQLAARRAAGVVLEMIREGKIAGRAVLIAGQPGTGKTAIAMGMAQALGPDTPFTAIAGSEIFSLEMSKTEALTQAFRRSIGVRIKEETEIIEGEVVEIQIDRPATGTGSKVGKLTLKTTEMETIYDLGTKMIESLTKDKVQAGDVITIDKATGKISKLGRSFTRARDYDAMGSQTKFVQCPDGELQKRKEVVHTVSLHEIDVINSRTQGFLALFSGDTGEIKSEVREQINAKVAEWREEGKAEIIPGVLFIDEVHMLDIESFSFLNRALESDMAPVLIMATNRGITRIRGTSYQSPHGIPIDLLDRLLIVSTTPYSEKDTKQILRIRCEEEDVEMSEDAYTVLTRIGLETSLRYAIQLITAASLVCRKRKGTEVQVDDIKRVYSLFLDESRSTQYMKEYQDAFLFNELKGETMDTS

[18] = target: proteins of HEK293T cells transiently overexpressing caspase-6 (Homo sapiens, UniProt Q9Y262)
Sequence of proteins of HEK293T cells transiently overexpressing caspase-6 (Homo sapiens, UniProt Q9Y262) (Q9Y262 whole entry): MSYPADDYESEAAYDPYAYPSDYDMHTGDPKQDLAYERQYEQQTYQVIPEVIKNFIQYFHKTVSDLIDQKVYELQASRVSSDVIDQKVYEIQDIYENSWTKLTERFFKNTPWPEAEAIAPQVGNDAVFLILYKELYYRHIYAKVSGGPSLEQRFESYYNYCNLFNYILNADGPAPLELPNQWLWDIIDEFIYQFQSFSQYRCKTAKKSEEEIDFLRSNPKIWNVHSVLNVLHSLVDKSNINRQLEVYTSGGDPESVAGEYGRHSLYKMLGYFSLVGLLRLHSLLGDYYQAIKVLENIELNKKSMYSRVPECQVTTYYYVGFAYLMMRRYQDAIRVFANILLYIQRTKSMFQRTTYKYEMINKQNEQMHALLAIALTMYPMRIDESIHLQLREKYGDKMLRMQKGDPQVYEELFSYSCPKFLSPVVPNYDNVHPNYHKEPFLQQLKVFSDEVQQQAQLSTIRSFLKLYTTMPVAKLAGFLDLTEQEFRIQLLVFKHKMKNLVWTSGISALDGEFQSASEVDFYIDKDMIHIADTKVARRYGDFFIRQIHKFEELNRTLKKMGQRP

[19] = target: proteins of HEK293T cells transiently overexpressing caspase-6 (Homo sapiens, UniProt Q9Y2X3); conditions: Comp; protein NOP58 Q9Y2X3
[20] = protein GPI (P06744), Exp Comp, analysis C6, p 0.0078, 8 peptides
[21] = protein GSTP1 (P09211), Exp Comp, analysis C6, p 0.5000, 2 peptides
[22] = protein PSMA4 (P25789), Exp Comp, analysis C6, p 0.0625, 5 peptides
[23] = protein PSMD1 (Q99460), Exp Comp, analysis C6, p 0.1250, 4 peptides
[24] = protein EIF3L (Q9Y262), Exp Comp, analysis C6, p 0.8438, 6 peptides

## C=CS(=O)(=O)N1C[C@H](C(=O)Nc2ccc(OC(F)(F)F)cc2)C[C@@H](c2ccccc2)C1 [3a]
[1]; Comp, protein GPI P06744
  enrich.exp.med: 1.157
[1]; [20]
  enrich.exp.med.lin: 2.229
  enrich.exp.med.log2: 1.157
[2]; Comp, protein GSTP1 P09211
  enrich.exp.med: 0.9589
[2]; [21]
  enrich.exp.med.lin: 1.9438
  enrich.exp.med.log2: 0.9589
[3]
  enrich.exp.med: 0.6484
[4]
  enrich.exp.med: 0.7274
[5]; Comp, protein PSMA4 P25789
  enrich.exp.med: 0.9624
[5]; [22]
  enrich.exp.med.lin: 1.949
  enrich.exp.med.log2: 0.9624
[6]
  enrich.exp.med: 0.7747
[7]
  enrich.exp.med: 0.6389
[8]
  enrich.exp.med: 0.7402
[9]
  enrich.exp.med: 0.6413
[10]
  enrich.exp.med: 0.707
[11]
  enrich.exp.med: 0.8074
[12]
  enrich.exp.med: 0.702
[13]
  enrich.exp.med: 0.6126
[14]
  enrich.exp.med: 0.5835
[15]
  enrich.exp.med: 0.6493
[16]; Comp, protein PSMD1 Q99460
  enrich.exp.med: 0.9459
[16]; [23]
  enrich.exp.med.lin: 1.926
  enrich.exp.med.log2: 0.9459
[17]
  enrich.exp.med: 0.7589
[18]; Comp, protein EIF3L Q9Y262
  enrich.exp.med: 1.059
[18]; [24]
  enrich.exp.med.lin: 2.083
  enrich.exp.med.log2: 1.059
[19]
  enrich.exp.med: 0.7213
